Laboratory results from publication PMC12116762, “Topobexin targets the Topoisomerase II ATPase domain for beta isoform-selective inhibition and anthracycline cardioprotection” (Nature Communications, 2025).
“And” between values parts separate entries of the source, which are not always exact repeats. Equal values may be shown once.

Tests used:
γH2AX [1] = test: γH2AX levels in NVCM (Western blotting); type: cell-based, rat; parameters: γH2AX level, mean: scale not given here; conditions: DAU 1.2 μM alone
Procedure: TOP2B and γH2AX levels in NVCM were determined as follows. After incubation, 4 × 10^5 rat neonatal cardiomyocytes were lysed with 75 µL of 2% SDS in 0.1 M Tris (pH 7.4) and boiled at 95 °C for 5 min. The protein content of each sample was determined by the BCA method and 10 μg of total protein were loaded onto a polyacrylamide gel (7.5% for TOP2B, 12% for γH2AX, Bio-Rad TGX stain-free gels). After approximately 75 min of electrophoresis (150 V, Bio-Rad Mini-PROTEAN Tetra Cell), the gels were transblotted onto nitrocellulose membranes using a semi-dry method in Transblot Turbo (Bio-Rad, USA). The next day, the membranes were blocked for 1 h in 5% skimmed milk powder in 0.05% TBS-T at room temperature (RT). For TOP2 analysis, membranes were incubated with rabbit anti-TOP2A/B (1:2,000, ab109524, Abcam, UK) in 1% BSA in PBS for 1 h at RT, washed 6 times for 5 min in 0.05% TBS-T and then incubated with HRP-labeled F(ab’)2 goat anti-rabbit IgG (1:10,000, ab6112, Abcam, UK) in 0.05% TBS-T for 1 h RT and washed again (6 × 5 min in 0.05% TBS-T). For γH2AX analysis, membranes were incubated with mouse anti-γH2AX (1:5,000; ab26350, Abcam, UK) in 5% BSA in PBS for 1 h at RT, washed with 0.05% PBS-T for 6 × 5 min, incubated with HRP-conjugated anti-mouse IgG (1:40,000; A9044 Sigma Aldrich, USA) in 5% BSA in PBS for 1 h RT and finally washed with 0.05% PBS-T for 6 times 5 min. Target proteins were visualized using a chemiluminescent detection substrate (Clarity Western ECL Substrate, Bio-Rad, USA) and a Gel Doc EZ with Image Lab software (Bio-Rad, USA). Full, uncropped images of all blots present in the manuscript figures are included in the source data file.
Densitometric quantification was performed using Image Lab software (Bio-Rad). Stain-free technology was used to visualize the total protein on the gel and normalize the total protein amount in each line. Each presented data point was obtained from distinct sample.

γH2AX [2] = test: γH2AX levels in HL-60 cells (Western blotting); type: cell-based, human; conditions: DAU 1.2 µM alone (mean = 100); Suppl.Fig.8d
rabbits = test: Chronic anthracycline cardiotoxicity model in rabbits
Procedure: Thirty-eight rabbits were used for this purpose using the following study design. Chronic cardiotoxicity was induced by DAU (3 mg/kg, i.v., once weekly for 10 weeks, n = 11), while the control group received the same volume of saline (1 ml/kg, n = 9) in the same way. […] Animal survival was monitored daily, while body weight change was recorded weekly. The experiment was scheduled to end a week after the last dosing of the compounds studied.
Cardiac damage induced by DAU was quantified by determination of cardiac troponin T in plasma before the 1st, 5th, 8th and 10th doses and at the end of the study using a high sensitivity assay (Elecsys Troponin T high sensitive STAT test, Roche Diagnostics, Switzerland, detection limit of 0.003 μg/L). The area under curve (AUC) of the plasma concentration of cardiac troponin T was determined using GraphPad Prism.
The systolic function of the LV was examined throughout the experiment without invasiveness using echocardiography (Vivid 4, probe 10.5 MHz, GE HeathCare) and invasively at the scheduled end of the experiment using LV catheterization (a Millar catheter 2.3 F, Millar Instruments, USA). In the echocardiography examination, the M-mode was used to determine the dimensions of the LV and the fractional shortening of the LV (LVFS) was calculated as an index of systolic function as described previously[46]. Similarly, from the change in LV pressures determined by catheterization of the LV, dP/dtmax was calculated as an index of systolic function as previously described[47]. Statistical significance was determined using one way ANOVA followed by the Holm–Sidak post hoc test or Kruskal–Wallis ANOVA on ranks followed by Dunn’s post hoc test according to the data distribution.
During necropsy, heart was rapidly excised, washed in cold saline and LV free wall was snap frozen in liquid nitrogen. After homogenization in liquid nitrogen, aliquots (aprox. 50 mg) were stored at -80 °C and used for PCR analysis of molecular markers of cardiotoxicity. Total RNA was isolated from rabbit LV myocardium using TRIzol reagent (Sigma-Aldrich). After reverse transcription using a High-Capacity cDNA Reverse Transcription Kit, qPCR was performed with TaqMan Fast Universal PCR Master Mix on QuantStudio 7 Flex Real-Time PCR System (all from Applied Biosystems, Foster City). […] Mean threshold cycle values were transformed into relative expression using the Pfaffl method. Commercial gene expression assays were obtained from Applied Biosystems and Generi Biotech (Hradec Králové, Czech Republic). The expression data were normalized by Hprt1 expression. Statistical significance was determined using one way ANOVA followed by the Holm–Sidak post hoc test or Kruskal–Wallis ANOVA on ranks followed by Dunn’s post hoc test according to the data distribution.

caspase 3/7 = test: Caspase 3/7 activity in NVCM (Caspase-Glo); type: cell-based, rat; conditions: DAU 1.2 μM alone
Procedure: (§1) Caspase activity was assessed on NVCM cells using luciferase-based kits for caspase 3/7, 8 and 9 (Caspase-Glo® 3/7, 8 and 9 assay systems; Promega) according to the manufacturer’s instructions on 384-well plates (Greiner Bio-One). Luminescence signal was measured using Tecan M200 multifunctional plate-reader. All measured groups were corrected for total protein concentration (BCA assay) and were expressed as fold change of the signal over corresponding untreated control group. Each presented data point was obtained from distinct sample. Statistical significance was determined using ratio paired t-test, two-tailed.

caspase 8 = test: Caspase 8 activity in NVCM (Caspase-Glo); type: cell-based, rat; conditions: DAU 1.2 μM alone
Procedure: as §1

caspase 9 = test: Caspase 9 activity in NVCM (Caspase-Glo); type: cell-based, rat; conditions: DAU 1.2 μM alone
Procedure: as §1

HL-60 cell line = test: Antiproliferative activity and interference with DAU (MTT), HL-60; type: cell-based, human; conditions: DAU 1.2 µM alone; Suppl.Fig.8c
Procedure: Antiproliferative effects of studied compounds alone or in combination with DAU were assayed, as described previously, using HL-60 cell line (ATCC® Catalog Number: CCL-240TM, lot 5036502; American Type Culture Collection, Manassas, VA) derived from a patient with acute promyelocytic leukaemia. The cells were cultured in RPMI-1640 medium supplemented with 10% FBS, 50 U/mL penicillin, and 50 μg/mL streptomycin solution at 37 °C in a humidified atmosphere of 5% CO2. For the experiments, cells were seeded on 96-well plates (TPP, Switzerland) at a density of 10,000 cells per well ([…]). […] Proliferation was assessed by the MTT assay. Briefly, 25 µL of 3 mg/mL MTT solution (3(4,5-dimethyl-2-thiazolyl)-2,5-diphenyl-2H-tetrazolium bromide) in PBS was added to each well, and after 2 h of incubation at 37 °C the cells were lysed with lysis buffer (isopropanol, 0.1 M HCl, 5% Triton X-100) for 30 minutes at RT. After the formazan was dissolved, the absorbance of the samples was measured at 570 nm and a reference wavelength at 690 nm (the 690 nm background absorbance was subtracted from the 570 nm values). Data are expressed as mean ± SD from four independent experiments. Normalized values were plotted as a function of inhibitor concentration to determine IC50 values using Prism 9 (GraphPad). Statistical significance was evaluated by ANOVA with the Holm-Sidak post hoc test (P ≤ 0.05, marked as significant difference against control (c) or DAU (d)).

COc1cccc2c1C(=O)c1c(O)c3c(c(O)c1C2=O)C[C@@](O)(C(C)=O)C[C@@H]3O[C@H]1C[C@H](N)[C@H](O)[C@H](C)O1 [DAU, daunorubicin, reference compound]
γH2AX level, mean (γH2AX [1]): 100
γH2AX level (γH2AX [1]; independent replicates): 113.699 and 89.6209 and 76.0928 and 120.587
γH2AX level, mean of independent replicates (γH2AX [2]): 100
premature death (rabbits; DAU 3 mg/kg weekly, 10 weeks): one premature death
Body weight gain (rabbits; DAU alone, individual animals): 111.6 and 102.0 and 134.7 and 116.1 and 99.5 and 98.2 and 106.3 and 117.5 and 112.5 and 97.6 and 92.2
Brain natriuretic peptide mRNA, LV myocardium (rabbits; DAU alone, individual animals): 3.43 and 7.71 and 11.23 and 1.53 and 3.70 and 14.27 and 5.99 and 15.03 and 2.12 and 2.78
Collagen I alpha 1 mRNA (rabbits; DAU alone, individual animals): 1.89 and 3.79 and 5.05 and 1.80 and 2.15 and 7.04 and 4.33 and 8.95 and 1.98 and 2.03
Fibronectin 1 mRNA (rabbits; DAU alone, individual animals): 2.75 and 11.42 and 16.69 and 2.86 and 6.76 and 33.96 and 11.80 and 25.41 and 3.99 and 2.01
LV FS (LMV) (rabbits; DAU alone, individual animals): 35.5 and 28.3 and 21.8 and 37.5 and 22.5 and 33.0 and 26.0 and 35.8
LV dP/dtmax (rabbits; DAU alone, individual animals): 4037 and 6946 and 6956 and 5174 and 3773 and 6731 and 5382 and 6442
Δ LV FS (LMV) (rabbits; DAU alone, individual animals): -7.5 and -6.8 and -15.3 and -22.3 and -4.5 and -6.0 and -18.5 and -9.0 and -16.5 and -17.5 and -9.2
Csp3/7 activity, mean (caspase 3/7): 3.236 fold change
Csp3/7 activity (caspase 3/7; independent replicates): 2.392 fold change and 2.445 fold change and 4.746 fold change and 2.53 fold change and 4.167 fold change and 3.136 fold change
Csp8 activity, mean (caspase 8): 2.2056 fold change
Csp8 activity (caspase 8; independent replicates): 1.777 fold change and 1.7129 fold change and 3.182 fold change and 1.952 fold change and 2.3428 fold change and 2.2669 fold change
Csp9 activity, mean (caspase 9): 2.579 fold change
Csp9 activity (caspase 9; independent replicates): 1.742 fold change and 1.782 fold change and 3.523 fold change and 1.858 fold change and 4.0027 fold change and 2.565 fold change
HL-60 proliferation (MTT), mean of independent replicates (HL-60 cell line): 35.1587
